The target of this assay is T1, 5-HT3 receptor (Rattus norvegicus, UniProt P35563).
T1 construct: Wistar strain male rats of 9 week age were anesthesized; from tissue; host or cells: whole anesthetized Wistar rat in vivo (endogenous receptor; cardiac vagal afferents by own knowledge)
T1 sequence (P35563 24-483): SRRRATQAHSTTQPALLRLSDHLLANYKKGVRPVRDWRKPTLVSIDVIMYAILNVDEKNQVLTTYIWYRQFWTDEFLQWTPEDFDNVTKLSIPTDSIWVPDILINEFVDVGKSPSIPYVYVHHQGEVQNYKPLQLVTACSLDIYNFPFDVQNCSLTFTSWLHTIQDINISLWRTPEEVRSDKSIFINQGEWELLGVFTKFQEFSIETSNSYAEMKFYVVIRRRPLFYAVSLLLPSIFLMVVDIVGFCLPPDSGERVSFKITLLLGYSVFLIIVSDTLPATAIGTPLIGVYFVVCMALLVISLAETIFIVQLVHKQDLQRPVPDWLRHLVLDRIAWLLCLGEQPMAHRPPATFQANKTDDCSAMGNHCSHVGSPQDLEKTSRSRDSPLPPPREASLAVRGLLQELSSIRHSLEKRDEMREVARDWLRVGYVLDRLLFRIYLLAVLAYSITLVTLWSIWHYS
Put plainly: Inhibition of serotonin- or 2-methylserotonin-induced Bezold-Jarisch (BJ) reflex in anesthetized rats (5-HT3-antagonizing activity). It is filed as in vivo, Wistar strain male rats. To be noted: serotonin-induced BJ reflex in rats, read-out: BJ Reflex Inhibitory Activity (ED50). The protocol: Wistar strain male rats of 9 week age were anesthesized with intraperitoneally administering 1 g/kg of urethane. Under artificial respiration, blood pressure and heart rate were measured. Transient reduction in heart rate and in blood pressure induced by intravenous administration of serotonin or 2-methylserotonin which is a selective agonist of 5-HT3 was used as an index for the reaction via 5-HT3 receptor (Bezold-Jarisch reflex : Paintal, A.S., Physiol. Rev., 53, 159, 1973).
Inhibitory activity of the compounds of the present invention on serotonin-induced Bezold-Jarisch (BJ) reflex in rats is shown in the table below.

Counter-ions that a name gives are not always drawn. Like-named read-outs stand apart in the source and are kept apart here.

For the compound `COc1ccccc1NC(=O)C1CCc2[nH]cnc2C1` (racemic) [Example 1, N-(2-methyloxyphenyl) -4,5,6,7-tetrahydrobenzimidazole-5carboxamide fumarate 0.8hydrate], the median effective dose (ED50) (in general, the midpoint of the dose-response relation) was found to be 0.32 µg/kg (iv) and 5.9 µg/kg (po).
As to `CCOc1ccccc1NC(=O)C1CCc2nc[nH]c2C1.O=C(O)/C=C/C(=O)O` (stereo not shown) [Example 13, N-(2-Ethoxyphenyl)-4,5,6,7-tetrahydrobenzimidazole-5-carboxamide fumarate], the 50% effective dose (ED50) was 1.2 µg/kg (iv) and 6.6 µg/kg (po).

The record behind these values is US4977175A, “4,5,6,7-tetrahydrobenzimidazole derivatives as 5HT3 -antagonists” (Yamanouchi Pharmaceutical Co., Ltd., priority 1988, dated 1990).
